Assay results reported in US20240199647A1, “ANTI-VIRAL COMPOUNDS” (Aligos Therapeutics, Inc., priority 2022, published 2024).
Read-outs that look alike come from different tables or passages of the source.

Columns and labels:
SARS-Cov-2 3CLpro = SARS-Cov-2 3CLpro (Severe acute respiratory syndrome coronavirus 2, UniProt P0DTD1); test: biochemical; settings: Table A, class symbols
[1] = tested on: A549-dual_ACE2_TMPRSS2 cells; test: Toxicity testing in A549-dual_ACE2_TMPRSS2 cells without virus (MTS); settings: read-out: A549-dual_ACE2_TMPRSS2 (CC50); Table C; A549-dual_ACE2_TMPRSS2 cells without virus, class symbols
[2] = tested on: SARS-CoV-2 B.1.1.7 lineage; test: microbe, parasite or virus in culture; assay type: cell-based; settings: Table C, SARS-CoV-2 B.1.1.7 in A549-dual_ACE2_TMPRSS2 cells, read-out: A549-dual_ACE2_TMPRSS2 (EC50)
[3] = tested on: human beta-coronavirus OC43; test: OC43 Coronavirus Assay in HeLa cells (antiviral, cytopathic effect, cell-titer-glo); assay type: cell-based; settings: Table B, OC43 coronavirus in HeLa cells, read-out: EC50
[4] = tested on: HeLa human cervical epithelial cells; test: Cytotoxicity in HeLa cells without addition of OC43 virus (in parallel); settings: Table B; HeLa cells without OC43 virus, class symbols
[5] = tested on: A549-dual_ACE2_TMPRSS2 cells; settings: human
[6] = Toxicity testing in A549-dual_ACE2_TMPRSS2 cells without virus (MTS); settings: human
[7] = Cytotoxicity in HeLa cells without addition of OC43 virus (in parallel); settings: human, HeLa cells, without OC43 virus
in vitro = settings: human
[8] = Betacoronavirus 1, OC43, HeLa, cells given as a bound
[9] = Severe acute respiratory syndrome coronavirus 2, cells given as a bound
[10] = Betacoronavirus 1, OC43, HeLa, class symbols

Structure (SMILES) | IC50 (SARS-Cov-2 3CLpro; read-out: SARS-Cov-2 (IC50)) [nM] | CC50 [4] [nM] | EC50 [2, 9] [nM] | CC50 at 6 days [7] [nM] | CC50 (in vitro) [nM] | further results
Cc1nnn(C(CC2CC2)C(=O)N(C)[C@@H](CC2CC2)C(=O)N2C[C@@]3(C[C@H]2C#N)Oc2cc(F)cc(F)c2NC3=O)c1C (relative stereo) [Compound 118, ((R*)—N—((S)-1-((2R,5'S)-5′-cyano-5,7-difluoro-3-oxo-3,4-dihydrospiro[benzo[b][1,4]oxazine-2,3′-pyrrolidin]-1′-yl)-3-cyclopropyl-1-oxopropan-2-yl)-3-cyclopropyl-2-(4,5-dimethyl-1H-1,2,3-triazol-1-yl)-N-methylpropanamide] | 200 to 2000 | > 10000 | – | – | – | CC50 [1]: > 1000 nM; EC50 ([2]; cells given as a bound): > 1000 nM; EC50 ([3]; cells given as a bound): > 10000 nM
CC1NC(=O)[C@]2(C[C@@H](C#N)N(C(=O)[C@H](CC3CC3)N(C)C(=O)[C@H](CC3CC3)NC(=O)C(F)(F)F)C2)Oc2ccccc21 (single isomer, unassigned) [Compound 224, (S)—N—((S)-1-((2R,5R*,5'S)-5′-cyano-5-methyl-3-oxo-4,5-dihydro-3H-spiro[benzo[f][1,4]oxazepine-2,3′-pyrrolidin]-1′-yl)-3-cyclopropyl-1-oxopropan-2-yl)-3-cyclopropyl-N-methyl-2-(2,2,2-trifluoroacetamido)propanamide] | < 20 | > 10000 | – | – | – | EC50 ([3]; class symbols): < 100 nM
C[C@H](NC(=O)C(F)(F)F)C(=O)N(C)[C@@H](CC1CC1)C(=O)N1C[C@]2(C[C@H]1C#N)C(=O)NCC2Oc1ccccc1 (some centres unmarked) [Compound 94] | 20 to 200 | > 10000 | – | – | – | EC50 ([2]; class symbols): 100 to 1000 nM; EC50 [3, 8]: > 10000 nM; CC50 [5]: > 1000 nM
C[C@H](NC(=O)Oc1ccc(F)cc1)C(=O)N(C)[C@@H](CC1CC1)C(=O)N1C[C@@]2(C[C@H]1C#N)Oc1cc(F)cc(F)c1NC2=O [Compound 119, 4-fluorophenyl ((S)-1-(((S)-1-((2R,5'S)-5′-cyano-5,7-difluoro-3-oxo-3,4-dihydrospiro[benzo[b][1,4]oxazine-2,3′-pyrrolidin]-1′-yl)-3-cyclopropyl-1-oxopropan-2-yl)(methyl)amino)-1-oxopropan-2-yl)carbamate] | – | – | > 1000 | > 10000 | – | IC50 (SARS-Cov-2 3CLpro; SARS-Cov-2 (IC50)): < 20 nM; CC50 [6]: > 1000 nM; EC50 ([3]; Betacoronavirus 1, class symbols): 100 to 1000 nM
CN(C(=O)[C@H](CC(C)(C)C)NC(=O)C(F)(F)F)[C@@H](CC1CC1)C(=O)N1C[C@@]2(C[C@H]1C#N)Oc1cccnc1NC2=O [Compound 233] | < 20 | > 10000 | – | – | – | EC50 ([2]; class symbols): < 100 nM; EC50 ([3]; class symbols): 100 to 1000 nM; CC50 [5]: > 1000 nM
Cc1cc2n(n1)[C@@]1(C[C@@H](C#N)N(C(=O)[C@H](CC(C)C)N(C)C(=O)[C@H](C)NC(=O)C(F)(F)F)C1)C(=O)N2 [Example 44, (S)—N—((S)-1-((3R,5'S)-5′-cyano-6-methyl-2-oxo-1,2-dihydrospiro[imidazo[1,2-b]pyrazole-3,3′-pyrrolidin]-1′-yl)-4-methyl-1-oxopentan-2-yl)-N-methyl-2-(2,2,2-trifluoroacetamido)propanamide] | 20 to 200 | – | > 1000 | > 10000 | > 1000 | EC50 [3, 10]: 100 to 1000 nM
CC(C)C[C@@H](C(=O)N1C[C@]2(C[C@H]1C#N)C(=O)Nc1ccnn12)N(C)C(=O)[C@H](C)NC(=O)C(F)(F)F [Example 45, (2S)—N-[(2S)-1-[(3R,5'S)-5′-cyano-2-oxo-1H-spiro[pyrazolo[1,5-a]imidazole-3,3′-pyrrolidin]-1′-yl]-4-methyl-1-oxopentan-2-yl]-N-methyl-2-(2,2,2-trifluoroacetamido)propanamide] | 20 to 200 | – | > 1000 | > 10000 | > 1000 | EC50 [3, 10]: 100 to 1000 nM
CC(C)C[C@@H](C(=O)N1C[C@]2(C[C@H]1C#N)C(=O)NCc1nccn12)N(C)C(=O)[C@H](C)NC(=O)C(F)(F)F [Example 46, (S)—N—((S)-1-((5R,5'S)-5′-cyano-6-oxo-7,8-dihydro-6H-spiro[imidazo[1,2-a]pyrazine-5,3′-pyrrolidin]-1′-yl)-4-methyl-1-oxopentan-2-yl)-N-methyl-2-(2,2,2-trifluoroacetamido)propanamide] | 20 to 200 | – | > 1000 | > 10000 | > 1000 | EC50 [3, 8]: > 10000 nM
